Measured values as given in ChEMBL document CHEMBL4308857, “Leishmania treatment and prevention: Natural and synthesized drugs” (Eur J Med Chem, 2018).
In brackets after ≈: the same amount, converted by molar mass.

What was measured:
Leishmania amazonensis [1] = assay: Antileishmanial activity against Leishmania amazonensis MHOM/BR/76/LTB-012 axenic amastigotes after 72 hrs by MTT assay; format: functional, organism-based; conditions: MHOM/BR/76/LTB-012, 72 h
Leishmania amazonensis [2] = assay: Antileishmanial activity against Leishmania amazonensis MCAN/ES/92/BCN83 axenic amastigotes infected in BALB/c mouse assessed as reduction in parasitic burden at 10 mg/kg, ip administered as daily dose for 3 continuous days and measured at day 5 post last dose by limit dilution assay relative to control; format: functional; set-up: scale not given: the % may be the effect or the level left
Leishmania donovani [3] = assay: Antileishmanial activity against Leishmania donovani […]/IN/80/DD8 promastigotes after 72 hrs by MTT assay; format: functional, organism-based; conditions: […]/IN/80/DD8, 72 h
Leishmania donovani [4] = assay: Antileishmanial activity against Leishmania donovani MHOM/ET/ 67/L82 amastigotes infected in BALB/c mouse assessed as reduction in parasitic load in liver at 100 mg/kg, sc qd administered for 5 days measured at 3 days post last dose relative to control; format: functional; set-up: scale not given: the % may be the effect or the level left
[5] = Cytotoxicity against BALB/c mouse peritoneal cells assessed as reduction in cell viability after 24 hrs by MTT assay; format: cell-based
Leishmania amazonensis [6] = assay: Antileishmanial activity against Leishmania amazonensis […]/BR/75/Josefa promastigotes; format: functional, organism-based
Leishmania amazonensis [7] = assay: Antileishmanial activity against Leishmania amazonensis […]/BR/75/Josefa axenic amastigotes infected in mouse J774A1 cells; format: functional, organism-based; conditions: J774.A1
Leishmania donovani [8] = assay: Antileishmanial activity against wild type Leishmania donovani LV9 promastigotes by MTT assay; format: functional, organism-based
[9] = test system: Mycobacterium tuberculosis; assay: Antitubercular activity against Mycobacterium tuberculosis H37Rv ATCC 27294 after 7 to 10 days by Resazurin microtiter assay; format: functional, organism-based
Leishmania panamensis = assay: Antileishmanial activity against GFP-fused Leishmania panamensis MHOM/CO/87/UA140pIR amastigotes infected in human U937 cells after 72 hrs by flow cytometric analysis; format: functional, organism-based; conditions: U-937, 72 h
[10] = Cytotoxicity against human U937 cells assessed as reduction in cell viability after 72 hrs by MTT assay; format: cell-based, U-937; conditions: read-out: LD50
Leishmania infantum [11] = assay: Antileishmanial activity against zymodemes of Leishmania infantum MCAN/ES/90/DP204 promastigotes by Neubauer chamber analysis; format: functional, organism-based
Leishmania amazonensis [12] = assay: Antileishmanial activity against Leishmania amazonensis promastigotes; format: functional, organism-based
Leishmania amazonensis [13] = assay: Antileishmanial activity against Leishmania amazonensis axenic amastigotes; format: functional, organism-based
Leishmania infantum [14] = assay: Antileishmanial activity against Leishmania infantum MCAN/BR/97/P142 promastigotes after 24 hrs; format: functional, organism-based; conditions: MCAN/BR/97/P142, 24 h
Leishmania amazonensis [15] = assay: Antileishmanial activity against Leishmania amazonensis MHOM/BR/77/LTB0016 promastigotes after 24 hrs; format: functional, organism-based; conditions: MHOM/BR/77/LTB0016, 24 h
Leishmania amazonensis [16] = assay: Antileishmanial activity against Leishmania amazonensis MHOM/BR/75/Josefa intracellular amastigotes after 72 hrs by Neubauer hemocytometric analysis; format: functional, organism-based
Leishmania amazonensis [17] = assay: Antileishmanial activity against Leishmania amazonensis MHOM/BR/75/Josefa promastigotes after 72 hrs by Neubauer hemocytometric analysis; format: functional, organism-based
Leishmania amazonensis [18] = assay: Antileishmanial activity against Leishmania amazonensis MHOM/BR/75/Josefa axenic amastigotes after 72 hrs by Neubauer hemocytometric analysis; format: functional, organism-based
Leishmania aethiopica = assay: Antileishmanial activity against Leishmania aethiopica amastigotes; format: functional, organism-based
Leishmania mexicana [19] = assay: Antileishmanial activity against Leishmania mexicana LV4 amastigotes infected in BALB/c bone marrow-derived macrophages assessed as reduction in cell viability after 2 hrs by trypan blue staining based bright-field microscopic analysis; format: functional, organism-based; conditions: LV4, 2 h
Leishmania mexicana [20] = assay: Antileishmanial activity against Leishmania mexicana LV4 promastigotes; format: functional, organism-based
Leishmania amazonensis [21] = assay: Antileishmanial activity against Leishmania amazonensis promastigotes assessed as reduction in parasitic growth after 5 to 7 days by Neubauer chamber analysis; format: functional, organism-based
Leishmania major [22] = assay: Antileishmanial activity against Leishmania major amastigotes; format: functional, organism-based
[23] = test system: Leishmania mexicana venezuelensis; assay: Antileishmanial activity against Leishmania venezuelensis MHOM/VE/74/PM-H3 amastigotes infected in BALB/c mouse assessed as reduction in parasitic load in footpad at 14 to 56 mg/kg, sc bid treated for 15 days at interval of 4 days and measured at 1 week post last dose by Giemsa staining-based inverted microscopic analysis relative to control; format: functional; set-up: scale not given: the % may be the effect or the level left
Leishmania donovani [24] = assay: Antileishmanial activity against Leishmania donovani amastigotes infected in mouse J774G8 cells after 48 to 72 hrs by Giemsa staining-based bright-field microscopic analysis; format: functional, organism-based
Leishmania donovani [25] = assay: Antileishmanial activity against Leishmania donovani promastigotes after 48 hrs by MTT assay; format: functional, organism-based
Leishmania donovani [26] = assay: Antileishmanial activity against Leishmania donovani promastigotes infected in hamster assessed as reduction in parasitic load in liver at 20 mg/kg, ip treated for 6 consecutive days measured at day 8 post last dose by 3H-thymidine incorporation assay relative to control; format: functional; set-up: scale not given: the % may be the effect or the level left
Leishmania donovani [27] = assay: Antileishmanial activity against Leishmania donovani MHOM/SD/00/1SD2D axenic amastigotes infected in human peripheral blood mononuclear cells after 3 days by 3H-thymidine incorporation assay; format: functional, organism-based
Leishmania donovani [28] = assay: Antileishmanial activity against Leishmania donovani promastigotes infected in hamster assessed as reduction in parasitic load in spleen at 20 mg/kg, ip treated for 6 consecutive days measured at day 8 post last dose by 3H-thymidine incorporation assay relative to control; format: functional; set-up: scale not given: the % may be the effect or the level left
Leishmania major [29] = assay: Antileishmanial activity against Leishmania major MHOM/IL/67/LRC-L137 promastigotes after 2 hrs by 3H-thymidine incorporation assay; format: functional, organism-based
Leishmania donovani [30] = assay: (§1) Antileishmanial activity against Leishmania donovani promastigotes infected in golden hamster assessed as reduction in parasitic load in spleen at 3.5 mg/kg, po administered 2 times a week for 4 weeks starting at 4 days post-infection measured 1 week post last dose by Giemsa staining-based assay relative to control; format: functional; set-up: scale not given: the % may be the effect or the level left
Leishmania donovani [31] = assay: as §1, with “14” for “3.5”; format: functional; set-up: scale not given: the % may be the effect or the level left
Leishmania donovani [32] = assay: Antileishmanial activity against Leishmania donovani intracellular amastigotes infected in mouse J774A.1 cells by flow cytometry; format: functional, organism-based; conditions: J774.A1

O=C1c2ccccc2C2=NCCc3cccc1c32
IC50 (Leishmania amazonensis [1]): < 0.05 µM
Activity (Leishmania amazonensis [2]): <=90%

O=c1oc2ccccc2c(O)c1C(c1ccccc1)c1c(O)c2ccccc2oc1=O
IC50 (Leishmania donovani [3]): 155 µg/mL (≈ 376 µM)

CC(=O)O[C@@]12CO[C@@H]1C[C@H](O)[C@@]1(C)C(=O)[C@H](O)C3=C(C)[C@@H](O)C[C@@](O)([C@@H](OC(=O)c4ccccc4)[C@H]21)C3(C)C
Activity (Leishmania donovani [4]): 42%

Cc1nn(-c2ccc(S(=O)(=O)Nc3ccccc3)cc2)c(Cl)c1Br
CC50 at 24 h [5]: 144 µM

CCCCNC(=O)c1cc2c([nH]c3ccccc32)c(-c2ccc(OC)cc2)n1
IC50 (Leishmania amazonensis [6]): 4.44 µM
IC50 (Leishmania amazonensis [7]): 12.5 µM

COc1ccc(N[C@]2(C(F)(F)F)O[C@@H]3O[C@@]4(C)CC[C@H]5[C@H](C)CC[C@@H]([C@H]2C)[C@@]35OO4)cc1
IC50 (Leishmania donovani [8]): 1.5 µM

COc1ccc(C(c2c(O)c3ccccc3oc2=O)c2c(O)c3ccccc3oc2=O)c(OC)c1
IC50 (Leishmania donovani [3]): 158 µg/mL (≈ 333 µM)

COC(=O)CC[C@@H](C)[C@H]1CC[C@H]2[C@@H]3[C@H](O)C[C@@H]4C[C@@H](n5cc(CNCCNc6ccnc7cc(Cl)ccc67)nn5)CC[C@]4(C)[C@H]3C[C@H](O)[C@]12C
IC50 [9]: 10.6 µM

O=C1C2=C(CCCC2)C2=NCCc3cccc1c32
IC50 (Leishmania amazonensis [1]): 0.025 µM

O=c1ccoc2cc(OCCCCOc3cc(Cl)ccc3Oc3ccc(Cl)cc3Cl)ccc12
EC50 (Leishmania panamensis): 7.5 µg/mL (≈ 14.8 µM)
CC50 at 72 h [10]: 15.8 µg/mL (≈ 31.2 µM)

CC(C)=CCC[C@@](C)(O)C1CC=C(C)CC1 (some centres not stated)
IC50 (Leishmania infantum [11]): 11 µg/mL (≈ 49.4 µM)

Cc1cc(=O)oc2cc(OCCCCOc3cc(Cl)ccc3Oc3ccc(Cl)cc3Cl)ccc12
EC50 (Leishmania panamensis): 27.5 µg/mL (≈ 52.9 µM)
CC50 at 72 h [10]: > 200 µg/mL

Cc1cccc(-c2ccn(S(=O)(=O)c3ccccc3)n2)c1NS(=O)(=O)c1ccccc1
IC50 (Leishmania amazonensis [12]): 6.7 µM
IC50 (Leishmania amazonensis [13]): 56 µM

Cc1nn(-c2ccc(S(=O)(=O)Nc3ccc(Cl)cc3)cc2)c(Cl)c1Br
IC50 (Leishmania infantum [14]): 0.065 µM
CC50 at 24 h [5]: 116 µM
IC50 (Leishmania amazonensis [15]): 0.072 µM

C/C=C/c1ccc2oc(-c3ccc(O)c(OC)c3)c(C)c2c1
IC50 (Leishmania amazonensis [16]): 5 µg/mL (≈ 17 µM)
IC50 (Leishmania amazonensis [17]): 9 µg/mL (≈ 30.6 µM)
IC50 (Leishmania amazonensis [18]): 13 µg/mL (≈ 44.2 µM)

COc1cc(OC)c(C(c2c(O)c3ccccc3oc2=O)c2c(O)c3ccccc3oc2=O)c(OC)c1
IC50 (Leishmania donovani [3]): 150 µg/mL (≈ 299 µM)

CCC(=O)N1N=C(c2ccccc2)CC1c1cn(-c2ccccc2)nc1-c1ccc(C)cc1 (configuration not stated)
IC50 (Leishmania aethiopica): 0.112 µg/mL (≈ 0.258 µM)

C=CCCCCC/C=C\CC#CC#C[C@@H](O)C=C
IC50 (Leishmania mexicana [19]): 0.48 µM
IC50 (Leishmania mexicana [20]): 0.55 µM

C[C@@]12C[C@H]3OC(=O)[C@@H]1CO[C@]14O[C@@]5([C@H]2C1=O)[C@@]3(C)OC(=O)[C@@]5(O)CC[C@H]1[C@H]4C[C@H]2O[C@]23CC=CC(=O)[C@]13C
IC50 (Leishmania amazonensis [21]): 1.4 µM

CC(C)c1nc2nc(N)nc(N)c2nc1C(C)C
IC50 (Leishmania major [22]): 0.5 µM

C/C=C/c1ccc2ccccc2n1 [CHIMANINE B]
Activity [23]: 95%

C/C=C1\C(=O)O[C@]23C=C[C@@H]4C(C(=O)OC)=CO[C@H](O[C@@H]12)[C@@H]43 [ISOPLUMERICIN]
IC50 (Leishmania donovani [24]): 1.41 µM
IC50 (Leishmania donovani [25]): 3.17 µM

C=CC(C)(C)c1cc(/C=C/C(=O)c2ccc(O)cc2)c(OC)cc1O [LICOAGROCHACONE A]
Activity (Leishmania donovani [26]): >90%
IC50 (Leishmania donovani [27]): 0.9 µg/mL (≈ 2.66 µM)
Activity (Leishmania donovani [28]): >90%
IC50 (Leishmania major [29]): 7.2 µg/mL (≈ 21.3 µM)

O=c1cc(-c2ccc(O)c(O)c2)oc2cc(O)cc(O)c12 [LUTEOLIN]
Activity (Leishmania donovani [30]): <=90%

C/C=C1/C(=O)O[C@]23C=C[C@@H]4C(C(=O)OC)=CO[C@H](O[C@@H]12)[C@@H]43 [PLUMERICIN]
IC50 (Leishmania donovani [24]): 4.1 µM
IC50 (Leishmania donovani [25]): 7.2 µM

O=c1c(O)c(-c2ccc(O)c(O)c2)oc2cc(O)cc(O)c12 [QUERCETIN]
Activity (Leishmania donovani [31]): <=90%

c1ccc2c(c1)Sc1ccccc1S2 [THIANTHRENE]
IC50 (Leishmania donovani [32]): 23 µM
